Where two headings read alike, the source gives them in different places.
Legend:
Assay type in all cases: cell-based
ΔF508-CFTR [1] = target: T1, ΔF508-CFTR (Homo sapiens, UniProt P13569, DEL508-508); test: CFTR cell surface levels using HRP-tagged ΔF508-CFTR expressing CFBE cells, in the presence of a co-corrector; details: HRP-tagged ΔF508-CFTR CFBE cells, in the presence of 3 μM co-corrector; for EC50: read-out: EC50
T1 construct: host or cells: CFBE41o-, doxycycline-inducible
In short: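 Chemiluminescent read-out of surface HRP (15 min, dark) after PBS washes. Activity is normalized as 100×(sample−DMSO)/(3 μM co-corrector alone−DMSO).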

CFTR ΔF508 = target: T2, CFTR ΔF508 (Homo sapiens, UniProt P13569, DEL508-508); test: Chronic TECC assay, primary bronchial epithelial cells of CF patients homozygous for CFTR ΔF508 (corrector, co-corrector and potentiator); details: chronic TECC; for % Activity at 1 μM (Ieq*) / % Activity at 1 μM (AUC**): test compound at 1 μM; for % Activity at 3 μM (AUC**): test compound at 3 μM
T2 construct: bronchial epithelial cells isolated from CF patients homozygous for the CFTR ΔF508 mutation; McGill University; Asterand; University of North Carolina hAEC-CF; host or cells: primary human bronchial epithelial cells from CF patients homozygous for ΔF508, differentiated at air-liquid interface
T2 sequence (P13569 with tags, fused parts or gaps DEL508-508): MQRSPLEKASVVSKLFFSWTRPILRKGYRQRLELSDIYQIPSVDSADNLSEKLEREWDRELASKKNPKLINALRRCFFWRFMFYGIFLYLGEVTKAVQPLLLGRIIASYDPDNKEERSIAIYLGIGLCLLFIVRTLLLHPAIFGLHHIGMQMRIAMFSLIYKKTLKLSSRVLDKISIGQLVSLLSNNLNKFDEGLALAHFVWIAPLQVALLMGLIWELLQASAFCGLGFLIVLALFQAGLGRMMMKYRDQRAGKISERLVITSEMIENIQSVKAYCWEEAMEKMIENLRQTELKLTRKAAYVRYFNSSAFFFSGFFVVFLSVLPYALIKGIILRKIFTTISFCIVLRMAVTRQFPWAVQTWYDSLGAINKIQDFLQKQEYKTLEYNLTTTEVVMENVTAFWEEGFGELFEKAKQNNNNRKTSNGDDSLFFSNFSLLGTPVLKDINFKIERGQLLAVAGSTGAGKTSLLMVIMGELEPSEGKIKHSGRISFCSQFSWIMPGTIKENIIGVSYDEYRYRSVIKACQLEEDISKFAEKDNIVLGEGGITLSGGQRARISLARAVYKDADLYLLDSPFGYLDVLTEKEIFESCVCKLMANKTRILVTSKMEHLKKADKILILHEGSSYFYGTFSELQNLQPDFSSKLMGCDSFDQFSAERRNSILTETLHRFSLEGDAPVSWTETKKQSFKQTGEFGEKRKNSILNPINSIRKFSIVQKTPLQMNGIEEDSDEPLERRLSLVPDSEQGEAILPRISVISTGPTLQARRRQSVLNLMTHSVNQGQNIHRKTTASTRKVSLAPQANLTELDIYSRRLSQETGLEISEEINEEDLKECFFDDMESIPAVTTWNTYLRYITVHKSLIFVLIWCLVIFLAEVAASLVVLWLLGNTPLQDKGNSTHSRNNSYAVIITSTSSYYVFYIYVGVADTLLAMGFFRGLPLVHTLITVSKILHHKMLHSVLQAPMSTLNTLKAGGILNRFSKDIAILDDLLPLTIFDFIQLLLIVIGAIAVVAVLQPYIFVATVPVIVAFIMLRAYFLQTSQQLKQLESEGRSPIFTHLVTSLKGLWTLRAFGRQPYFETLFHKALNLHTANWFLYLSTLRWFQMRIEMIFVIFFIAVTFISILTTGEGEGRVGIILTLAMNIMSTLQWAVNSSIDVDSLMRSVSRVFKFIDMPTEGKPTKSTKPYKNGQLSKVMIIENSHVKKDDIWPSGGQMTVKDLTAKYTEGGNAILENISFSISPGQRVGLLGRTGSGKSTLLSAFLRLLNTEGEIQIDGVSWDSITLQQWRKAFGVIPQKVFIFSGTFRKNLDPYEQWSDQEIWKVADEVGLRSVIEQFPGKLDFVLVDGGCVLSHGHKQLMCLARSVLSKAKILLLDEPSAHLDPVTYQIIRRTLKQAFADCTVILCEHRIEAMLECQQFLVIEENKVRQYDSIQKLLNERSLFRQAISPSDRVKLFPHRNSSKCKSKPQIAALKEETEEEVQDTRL
In short: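 Primary bronchial epithelial cells from ΔF508-homozygous CF patients on collagen IV-coated Transwells were chronically treated with test compound plus corrector and potentiator, which were re-added before recording. Ieq was derived from PD and Rt in NaCl-Ringer, pH 7.4, at 37° C, with apical amiloride and bilateral forskolin, recorded every 2 min over 20 min. Ieq increase was normalized to controls, and EC50 was taken from per-well concentrations.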

ΔF508-CFTR [2] = target: T1, ΔF508-CFTR; test: CFTR cell surface levels using HRP-tagged ΔF508-CFTR expressing CFBE cells, intrinsic corrector capacity; set-up: % Activation: concentration or dose not given beside the values; details: HRP-tagged ΔF508-CFTR expressing CFBE41o- cells, compound alone (intrinsic corrector capacity), 20 hours at 33° C.; for EC50: read-out: EC50
In short: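 Surface ΔF508-CFTR was measured as HRP chemiluminescence from an extracellular-loop-4 tag, expressed as percent activity between DMSO and a […] corrector control.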

[3] = Ieq = calculations based on the maximum current, read-out: EC50 (nM) (Ieq*)
[4] = Ieq = calculations based on the maximum current
[5] = AUC = full area under the curve upon forskolin stimulation, read-out: EC50 (nM) (AUC**)
[6] = AUC = full area under the curve upon forskolin stimulation

T1 sequence (P13569 with tags, fused parts or gaps DEL508-508): as above

SMILES | % Activation (ΔF508-CFTR [1]) | EC50 (ΔF508-CFTR [1]) | EC50 (CFTR ΔF508; [3]) | % Activity at 1 μM (Ieq*) (CFTR ΔF508; [4]) | % Activation (ΔF508-CFTR [2]) | EC50 (ΔF508-CFTR [2]) | EC50 (CFTR ΔF508; [5]) | % Activity at 1 μM (AUC**) (CFTR ΔF508; [6]) | % Activity at 3 μM (AUC**) (CFTR ΔF508; [6])
CC(C)c1nn(-c2ccccc2)c2nc(C(=O)NS(C)(=O)=O)cc(-c3ccc(N4CCOCC4)nc3)c12 [Compound 34, N-(methanesulfonyl)-4-[6-(morpholin-4-yl)pyridin-3-yl]-1-phenyl-3-(propan-2-yl)-1H-pyrazolo[3,4-b]pyridine-6-carboxamide] | 462.55% | 0.356 µM | < 30 nM | 270% | 292.95% | 0.611 µM |  |  | 
COC1CCN(c2cc(C(=O)NS(C)(=O)=O)nc3c2c(C(C)C)nn3C2CCCCC2)CC1 [Compound 150, 1-cyclohexyl-N-(methanesulfonyl)-4-(4-methoxypiperidin-1-yl)-3-(propan-2-yl)-1H-pyrazolo[3,4-b]pyridine-6-carboxamide] | 380.65% | 0.318 µM | 100 nM |  | 220.98% | 0.576 µM |  |  | 
CS(=O)(=O)NC(=O)c1cc(N2CCC(CN3CCOCC3)CC2)c2c(C3CCC3)nn(-c3ccc(F)cc3)c2n1 [Compound 410, 3-cyclobutyl-1-(4-fluorophenyl)-N-(methanesulfonyl)-4-{4-[(morpholin-4-yl)methyl]piperidin-1-yl}-1H-pyrazolo[3,4-b]pyridine-6-carboxamide] | 529.58% | 0.0824 µM |  |  | 337.42% | 0.213 µM | 1.58 nM | 233.3333% | 
O=C(NS(=O)(=O)N1CCC(F)C1)c1cc(N2CCC(N3CCOCC3)CC2)c2c(C3CCC3)nn(-c3ccc(F)cc3)c2n1 (centres unmarked) [Compound 537, 3-cyclobutyl-1-(4-fluorophenyl)-N-(3-fluoropyrrolidine-1-sulfonyl)-4-[4-(morpholin-4-yl)piperidin-1-yl]-1H-pyrazolo[3,4-b]pyridine-6-carboxamide] | 417.1% | 0.0508 µM |  |  | 214.5% | 0.112 µM |  |  | 261.5724%
COC(C)C1CCN(c2cc(C(=O)NS(C)(=O)=O)nc3c2c(C2CCC2)nn3-c2ccccc2)CC1 (centres unmarked) [Compound 241, 3-cyclobutyl-N-(methanesulfonyl)-4-[4-(1-methoxyethyl)piperidin-1-yl]-1-phenyl-1H-pyrazolo[3,4-b]pyridine-6-carboxamide] | 488.15% | 0.0822 µM |  |  | 261.93% | 0.366 µM | < 10 nM | 400% | 
CN(C)S(=O)(=O)NC(=O)c1cc(N2CCC(N3CC(C#N)C3)CC2)c2c(C3CCC3)nn(-c3ccc(F)cc3)c2n1 [Compound 523, 4-[4-(3-cyanoazetidin-1-yl)piperidin-1-yl]-3-cyclobutyl-N-(dimethylsulfamoyl)-1-(4-fluorophenyl)-1H-pyrazolo[3,4-b]pyridine-6-carboxamide] | 451.33% | 0.1 µM |  |  | 236.53% | 0.124 µM |  |  | 460.2177%
COCCN(C)S(=O)(=O)NC(=O)c1cc(N2CCC(N3CCOCC3)CC2)c2c(C3CCC3)nn(-c3ccc(F)cc3)c2n1 [Compound 471, 3-cyclobutyl-1-(4-fluorophenyl)-N-[(2-methoxyethyl)(methyl)sulfamoyl]-4-[4-(morpholin-4-yl)piperidin-1-yl]-1H-pyrazolo[3,4-b]pyridine-6-carboxamide] | 446.07% | 0.122 µM |  |  | 240.2% | 0.23 µM |  | 296.6667% | 
CN(C)S(=O)(=O)NC(=O)c1cc(N2CCC3C(CCN3C3COC3)C2)c2c(C3CCC3)nn(-c3ccc(F)cc3)c2n1 (centres unmarked) [Compound 627, 3-cyclobutyl-N-(dimethylsulfamoyl)-1-(4-fluorophenyl)-4-[1-(oxetan-3-yl)octahydro-5H-pyrrolo[3,2-c]pyridin-5-yl]-1H-pyrazolo[3,4-b]pyridine-6-carboxamide] | 348.57% | 0.0248 µM |  |  | 162.47% | 0.0823 µM |  |  | 446.6667%
COCCS(=O)(=O)NC(=O)c1cc(N2CCC(CN3CCOCC3)CC2)c2c(C3CCC3)nn(-c3ccc(F)cc3)c2n1 [Compound 447, 3-cyclobutyl-1-(4-fluorophenyl)-N-(2-methoxyethanesulfonyl)-4-{4-[(morpholin-4-yl)methyl]piperidin-1-yl}-1H-pyrazolo[3,4-b]pyridine-6-carboxamide] | 543.1% | 0.0647 µM |  |  | 330.9% | 0.244 µM |  | 330% | 
CCS(=O)(=O)NC(=O)c1cc(-c2cnc(N(C)C)nc2)c2c(C(C)C)nn(-c3cccc(N4CCOCC4)c3)c2n1 [Compound 30, 4-[2-(dimethylamino)pyrimidin-5-yl]-N-(ethanesulfonyl)-1-[3-(morpholin-4-yl)phenyl]-3-(propan-2-yl)-1H-pyrazolo[3,4-b]pyridine-6-carboxamide] | 580.97% | 0.215 µM | < 30 nM | 450% | 369.93% | 0.436 µM |  |  | 
CN(c1ccc(-c2cc(C(=O)NS(C)(=O)=O)nc3c2c(C2CCC2)nn3-c2ccccc2)cn1)C1CCOCC1 [Compound 74, 3-cyclobutyl-N-(methanesulfonyl)-4-{6-[methyl(oxan-4-yl)amino]pyridin-3-yl}-1-phenyl-1H-pyrazolo[3,4-b]pyridine-6-carboxamide] | 424.82% | 0.357 µM | < 30 nM | 240% | 253.38% | 0.549 µM |  |  | 
CC(C)Oc1nn(C2CCCCC2)c2nc(C(=O)NS(C)(=O)=O)cc(-c3ccc(CN4CCN(C)CC4)cc3)c12 [Compound 441, 1-cyclohexyl-N-(methanesulfonyl)-4-{4-[(4-methylpiperazin-1-yl)methyl]phenyl}-3-[(propan-2-yl)oxy]-1H-pyrazolo[3,4-b]pyridine-6-carboxamide] | 393.27% | 0.196 µM |  |  | 196.1% | 0.35 µM | 206 nM | 236.6667% | 
COCC1CCN(c2cc(C(=O)NS(=O)(=O)N3CCC(F)CC3)nc3c2c(C2CCC2)nn3-c2ccccc2)CC1 [Compound 399, 3-cyclobutyl-N-(4-fluoropiperidine-1-sulfonyl)-4-[4-(methoxymethyl)piperidin-1-yl]-1-phenyl-1H-pyrazolo[3,4-b]pyridine-6-carboxamide] | 388.77% | 0.0442 µM |  |  | 237.5% | 0.0721 µM |  | 244.7508% | 
CN(C)S(=O)(=O)NC(=O)c1cc(N2CCC3C(CCN3C3CCOCC3)C2)c2c(C3CCC3)nn(-c3ccc(F)cc3)c2n1 (centres unmarked) [Compound 628, 3-cyclobutyl-N-(dimethylsulfamoyl)-1-(4-fluorophenyl)-4-[1-(oxan-4-yl)octahydro-5H-pyrrolo[3,2-c]pyridin-5-yl]-1H-pyrazolo[3,4-b]pyridine-6-carboxamide] | 477.32% | 0.132 µM |  |  | 283.25% | 0.425 µM | 88.4 nM |  | 473.0586%
CC(C)Oc1nn(C2CCCCC2)c2nc(C(=O)NS(=O)(=O)N(C)C)cc(-c3ccc(CN4CCOCC4)cc3)c12 [Compound 406, 1-cyclohexyl-N-(dimethylsulfamoyl)-4-{4-[(morpholin-4-yl)methyl]phenyl}-3-[(propan-2-yl)oxy]-1H-pyrazolo[3,4-b]pyridine-6-carboxamide] | 311.35% | 0.182 µM |  |  | 125.95% | 0.241 µM |  | 235% | 
COCCS(=O)(=O)NC(=O)c1cc(OCC2(C)COC2)c2c(C3CCC3)nn(-c3ccccc3)c2n1 [Compound 269, 3-cyclobutyl-N-(2-methoxyethanesulfonyl)-4-[(3-methyloxetan-3-yl)methoxy]-1-phenyl-1H-pyrazolo[3,4-b]pyridine-6-carboxamide] | 275.45% | 0.0972 µM |  |  | 120.6% | 0.246 µM |  | 172.35% | 
COC(C)(C)C1CCN(c2cc(C(=O)NS(C)(=O)=O)nc3c2c(C2CCC2)nn3-c2ccccc2)CC1 [Compound 294, 3-cyclobutyl-N-(methanesulfonyl)-4-[4-(2-methoxypropan-2-yl)piperidin-1-yl]-1-phenyl-1H-pyrazolo[3,4-b]pyridine-6-carboxamide] | 548.45% | 0.0221 µM |  |  | 319.6% | 0.0622 µM | 21 nM |  | 

— US10259810B2, “N-sulfonylated pyrazolo[3,4-b]pyridin-6-carboxamides and method of use” (AbbVie S.à.r.l., priority 2015, dated 2019)
